According to paper PMC12057359, “Inhibitory effect of copper chelators on the budding in Candida albicans” (Antimicrobial Agents and Chemotherapy, 2025):
Read-outs that look alike come from different tables or passages of the source.

Legend:
C. tropicalis JCM1541 = assay: iHOPE antimicrobial microdilution assay (turbidity OD600); type: cell-based; details: Candida tropicalis, JCM1541; MOPS-RPMI medium, 24 h; SD in parentheses, n = 3; read-out: IC50 against C. tropicalis JCM1541
C. auris VPCI673 = assay: as above; type: cell-based, Candida auris; details: Candidozyma auris, VPCI673; MOPS-RPMI medium, 24 h; SD in parentheses, n = 3; read-out: IC50 against C. auris VPCI673
E. coli HO-141 = assay: iHOPE antimicrobial microdilution assay; type: cell-based, Escherichia coli; details: Escherichia coli, HO141; SD in parentheses, n = 3; read-out: IC50 against E. coli HO-141
A. fumigatus Af293 = assay: iHOPE antimicrobial microdilution assay; type: cell-based, Aspergillus fumigatus; details: Aspergillus fumigatus, AF293; SD in parentheses, n = 3; read-out: IC50 against A. fumigatus Af293
C. albicans JCM1542 [1] = type: cell-based, Candida albicans; details: C. albicans JCM1542, MOPS-RPMI medium, 24 h
C. glabrata JCM3761 = assay: iHOPE antimicrobial microdilution assay (turbidity OD600); type: cell-based, Candida glabrata; details: Nakaseomyces glabratus, JCM3761; MOPS-RPMI medium, 24 h; SD in parentheses, n = 3; read-out: IC50 against C. glabrata JCM3761
P. oryzae Kita-1 = assay: microbe, parasite or virus in culture; type: cell-based, Pyricularia oryzae; details: Pyricularia oryzae, KITA1, read-out: IC50 against P. oryzae Kita-1
S. aureus 209P = assay: iHOPE antimicrobial microdilution assay; type: cell-based, Staphylococcus aureus; details: Staphylococcus aureus, 209P; SD in parentheses, n = 3; read-out: IC50 against S. aureus 209P
C. albicans JCM1542 [2] = assay: iHOPE antimicrobial microdilution assay (turbidity OD600); type: cell-based, Candida albicans; details: for IC50: Candida albicans, JCM1542, MOPS-RPMI medium, 28°C, 24 h, OD600, standard deviation in parentheses, n = 3, read-out: IC50 against C. albicans JCM1542; for antifungal activity / inhibition of budding against C. albicans (in words): C. albicans JCM1542
C. auris Ci6684 = assay: as above; type: cell-based, Candida auris; details: Candidozyma auris, CI6684; MOPS-RPMI medium, 24 h; SD in parentheses, n = 3; read-out: IC50 against C. auris Ci6684
[3] = iHOPE in vitro cytotoxicity assessment (Cell Count Reagent SF); type: cell-based, human; details: human
Method: The method for in vitro cytotoxicity assessment using Cell Count Reagent SF (Nacalai Tesque) has been described previously ([15]). […] Test compounds were added to the culture medium, and then the plates were incubated at 28°C for 24 h.

[4] = SD in parentheses, n = 3, read-out: IC50 against HL-60 RCB0041 (cytotoxicity)

Row | Compound | IC50 (C. tropicalis JCM1541) [nM] | IC50 (C. auris VPCI673) [nM] | IC50 (C. glabrata JCM3761) [nM] | IC50 (C. albicans JCM1542 [2]) [nM] | IC50 (C. auris Ci6684) [nM] | IC50 [3, 4] [nM] | further results
1 | Nc1nc(=O)[nH]cc1F [5-FC, 5-fluorocytosine] | 110 | 270 | 81 | 190 | 370 | – | IC50 (E. coli HO-141): > 30000 nM; IC50 (A. fumigatus Af293): 15000 nM; morphological change induced in C. albicans (C. albicans JCM1542 [1]): hyphal-rich morphology; IC50 (P. oryzae Kita-1): > 30000 nM; IC50 (S. aureus 209P): > 30000 nM; IC50 [3]: > 30000 nM
2 | [C-]#[N+][C@H](C)CC(=O)NCc1ccc(N)cc1 [8a] | – | – | – | 770 | – | > 30000 | antifungal activity / inhibition of budding against C. albicans (in words) (C. albicans JCM1542 [2]): weak antifungal activity and inhibition of budding
3 | [C-]#[N+][C@@H](C)CC(=O)NCc1ccc(N)cc1 [8b] | – | – | – | 1800 | – | > 30000 | antifungal activity / inhibition of budding against C. albicans (in words) (C. albicans JCM1542 [2]): weak antifungal activity and inhibition of budding
4 | [C-]#[N+][C@H](C)CC(=O)NCc1ccc(NC(=O)C[C@@H](C)[N+]#[C-])cc1 [10a] | – | – | – | 380 | – | > 30000 | –
5 | [C-]#[N+][C@@H](C)CC(=O)NCc1ccc(NC(=O)C[C@H](C)[N+]#[C-])cc1 [10b] | – | – | – | 190 | – | > 30000 | –
6 | [C-]#[N+][C@H](C)CC(=O)NCCc1ccc(NC(=O)C[C@@H](C)[N+]#[C-])cc1 [12a] | 13 | 180 | 10 | 12 | 58 | > 30000 | –
7 | [C-]#[N+][C@@H](C)CC(=O)NCCc1ccc(NC(=O)C[C@H](C)[N+]#[C-])cc1 [12b] | 12 | 140 | 12 | 12 | 55 | > 30000 | –
8 | [C-]#[N+][C@H](C)CC(=O)Nc1ccc(NC(=O)C[C@@H](C)[N+]#[C-])cc1 [13a] | – | – | – | 410 | – | > 30000 | –
9 | [C-]#[N+][C@@H](C)CC(=O)Nc1ccc(NC(=O)C[C@H](C)[N+]#[C-])cc1 [13b] | – | – | – | 34 | – | > 30000 | –
10 | [C-]#[N+][C@H](C)CC(=O)Nc1cccc(NC(=O)C[C@@H](C)[N+]#[C-])c1 [14a] | – | – | – | 54 | – | > 30000 | –
11 | [C-]#[N+][C@@H](C)CC(=O)Nc1cccc(NC(=O)C[C@H](C)[N+]#[C-])c1 [14b] | – | – | – | 20 | – | > 30000 | –
12 | [C-]#[N+][C@H](C)CC(=O)N[C@H]1CC[C@@H](NC(=O)C[C@@H](C)[N+]#[C-])CC1 [15a] | 32 | 64 | 8.2 | 15 | 49 | > 30000 | –
13 | [C-]#[N+][C@@H](C)CC(=O)N[C@H]1CC[C@@H](NC(=O)C[C@H](C)[N+]#[C-])CC1 [15b] | 26 | 34 | 10 | 19 | 62 | > 30000 | –
14 | [C-]#[N+][C@H](C)CC(=O)N[C@H]1CC[C@H](NC(=O)C[C@@H](C)[N+]#[C-])CC1 [16a] | – | – | – | 610 | – | > 30000 | –
